Experimental data as given in patent US10947196B2, “Beta adrenergic agonist and methods of using the same” (CURASEN THERAPEUTICS, INC., priority 2019, dated 2021).
Where two headings read alike, the source gives them in different places.

Tests used:
Type in all cases: cell-based
[1] = biological target: β1-adrenergic receptor (Homo sapiens (Human), UniProt P08588); test: cAMP Gs dynamic HTRF assay, β1 expressing CHO cells; conditions: B1-AR
Procedure, shortened: (§1)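 Intracellular cAMP quantified by Eu-donor/d2-acceptor HTRF after 30 min compound exposure at 37° C in stimulation buffer with IBMX. Concentrations ran 10 μM top, 5-fold steps, 10 points. Cell lines: 1321N1 astrocytoma and CHO expressing β1 or β2; EC50 via four-parameter fit, relative efficacy against isoproterenol.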

[2] = biological target: β2 adrenergic receptors in human astrocytoma cells (1321N1) (Homo sapiens (Human), UniProt P07550); test: cAMP HTRF assay in human astrocytoma cells (1321N1)
Method: cAMP homogeneous time-resolved fluorescence (HTRF). Compound efficacy was determined using the cAMP Gs dynamic HTRF assay (Cisbio, catalog #62AM4PEC) largely following the manufacturer's instructions, also detailed below.
Compound preparation. […] Standard serial dilution curves were 10-point, 5-fold dilutions starting from a highest concentration of 10 μM. […] Assay plates were centrifuged at 500×g for 10 seconds. Compounds and IBMX were prepared at 2× final dose to compensate for addition of cells.
Cell preparation. 1× stimulation buffer, washing PBS (Dulbecco's phosphate-buffered saline, −Mg −Ca; Caisson Labs, catalog #PBL01), assay PBS (Dulbecco's phosphate-buffered saline, +Mg, +Ca; Caisson Labs, catalog #PBL02) and Versene (0.02% EDTA disodium salt solution in PBS without calcium or magnesium; Caisson Labs, catalog #EDL01) were pre-warmed to 37° C. Cells expressing beta-adrenergic receptor were washed in washing PBS to remove growth medium and then released from the surface by incubating with Versene for 5-10 minutes at 37° C. Cells were harvested using assay PBS, counted manually by hemocytometer or by an automated cell counter, pelleted by centrifugation (200×g, 5 minutes) and resuspended in 37° C. 1× stimulation buffer to a final density of 1.5×10^6 cells/mL. 5 μL of the suspended cell solution (7500 cell total) were added to all wells of the 384 well assay plate, the assay plate was covered with an Axygen® plate seal (Corning PCR-SP) and incubated in a humidified 37° C. environment supplemented with 5% CO2 for 30 minutes.
HTRF reagent addition, reading and data analysis. After 30 minutes of cell stimulation with test compound, the assay plates were centrifuged at 500×g for 10 seconds, and incubation was stopped with the addition of 5 μL cAMP-D2 acceptor, diluted 1:21 in detection and lysis buffer 2 (Cisbio 62CL2FDF) was added to all cells. Subsequently, 5 μL Anti-cAMP-Eu Donor, diluted 1:21 in detection and lysis buffer 2, was added to cells. Plates were sealed and reactions gently ‘vortexed’ at 900 rpm on a Heidolph Titramax 1000 for at least 30 minutes at room temperature. Plates were centrifuged again at 500×g for 10 seconds, and HTRF was measured using a Tecan Spark plate reader at 50 flashes per well. […] Potency estimates (EC50) were derived from the four-parameter nonlinear regression of the concentration-effect curve and an estimate of relative efficacy was determined by comparing the magnitude of the test compound HTRF signal window (min−max dose) with the signal window of the full agonist control, isoproterenol.

[3] = biological target: β2 adrenergic receptor (Homo sapiens (Human), UniProt P07550); test: cAMP Gs dynamic HTRF assay, β2 expressing CHO cells; conditions: B2-AR
Procedure, shortened: as §1

[4] = CHO-K1 (HitHunter), read-out: Average pEC50 [Receptor subtype: B1-AR, Cell type: CHO-K1 (HitHunter)] (converted)
[5] = CHO-K cells, read-out: Average EC50 [Receptor subtype: B1-AR, Cell type: CHO-K]
[6] = Endogenous receptor, 1321N1 cells, read-out: Average pEC50 [Receptor subtype: Endogenous, Cell type: 1321N1] (converted)
[7] = CHO-K1 (HitHunter), read-out: Average pEC50 [Receptor subtype: B2-AR, Cell type: CHO-K1 (HitHunter)] (converted)
[8] = CHO-K cells, read-out: Average EC50 [Receptor subtype: B2-AR, Cell type: CHO-K]
[9] = Average pEC50 [Receptor subtype: B1-AR, Cell type: CHO-K1 (HitHunter)], CHO-K1 (HitHunter)
[10] = Average pEC50 [Receptor subtype: B2-AR, Cell type: CHO-K1 (HitHunter)], CHO-K1 (HitHunter)

Sequence of β2 adrenergic receptors in human astrocytoma cells (1321N1) (P07550 whole entry): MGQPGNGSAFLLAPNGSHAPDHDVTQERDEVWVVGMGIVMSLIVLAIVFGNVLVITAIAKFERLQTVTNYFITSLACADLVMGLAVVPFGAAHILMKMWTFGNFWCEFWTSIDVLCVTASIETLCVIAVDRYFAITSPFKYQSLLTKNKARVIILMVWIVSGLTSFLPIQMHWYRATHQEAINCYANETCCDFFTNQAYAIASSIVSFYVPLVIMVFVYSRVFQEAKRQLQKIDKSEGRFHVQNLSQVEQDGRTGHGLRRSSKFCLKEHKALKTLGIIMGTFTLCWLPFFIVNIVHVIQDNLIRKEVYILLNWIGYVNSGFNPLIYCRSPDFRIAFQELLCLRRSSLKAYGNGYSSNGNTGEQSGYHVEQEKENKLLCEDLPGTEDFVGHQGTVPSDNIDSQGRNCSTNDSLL
Sequence of β2 adrenergic receptor (P07550 whole entry, species assumed): as the sequence (P07550 whole entry) above
Sequence of β1-adrenergic receptor (P08588 whole entry, species assumed): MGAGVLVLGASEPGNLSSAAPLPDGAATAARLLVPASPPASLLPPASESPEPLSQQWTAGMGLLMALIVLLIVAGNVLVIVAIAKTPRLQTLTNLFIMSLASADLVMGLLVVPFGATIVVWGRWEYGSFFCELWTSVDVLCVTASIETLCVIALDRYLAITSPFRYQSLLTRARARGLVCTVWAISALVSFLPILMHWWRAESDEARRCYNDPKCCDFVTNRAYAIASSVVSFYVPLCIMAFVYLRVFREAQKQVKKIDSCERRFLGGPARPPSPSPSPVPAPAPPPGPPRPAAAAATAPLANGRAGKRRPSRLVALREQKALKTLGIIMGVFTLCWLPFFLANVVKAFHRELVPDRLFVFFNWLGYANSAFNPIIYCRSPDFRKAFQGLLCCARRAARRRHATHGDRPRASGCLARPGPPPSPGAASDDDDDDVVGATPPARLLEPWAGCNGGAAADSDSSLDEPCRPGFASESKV

Cc1cccc([C@@H](O)CNC(C)(C)C)n1 [Compound 03-6]
EC50 [1, 4]: 10 to 100 nM | EC50 [1, 5]: 10 to 100 nM | EC50 [2, 6]: 100 to 1000 nM | EC50 [3, 7]: 10 to 100 nM | EC50 [3, 8]: 10 to 100 nM

CC(C)(C)NC[C@H](O)c1cccnc1C1CC1 [Compound 03-54]
EC50 [1, 4]: 100 to 1000 nM | EC50 [1, 5]: 100 to 1000 nM | Average pEC50 [Receptor subtype: Endogenous; Cell type: 1321N1] ([2]; Endogenous receptor, 1321N1 cells): C (C = <7-6) | EC50 ([2]; Endogenous receptor, 1321N1 cells, read-out: Average EC50 [Receptor subtype: Endogenous, Cell type: 1321N1]): 100 to 1000 nM | EC50 [3, 7]: 10 to 100 nM | EC50 [3, 8]: 10 to 100 nM

COc1ccc(C[C@@H](C)NC[C@H](O)c2cccnc2C2=CCCC2)cc1 [Compound 03-63]
EC50 [1, 9]: > 1000 nM | EC50 [2]: > 1000 nM | EC50 [3, 10]: 100 to 1000 nM

COc1ccc(C[C@@H](C)NC[C@H](O)c2cccnc2C2CCCC2)cc1 [Compound 03-64]
EC50 [1, 9]: > 1000 nM | EC50 [2]: 100 to 1000 nM | EC50 [3, 10]: 100 to 1000 nM

COc1ccc(C[C@@H](C)NC[C@H](O)c2cccnc2C)cc1 [Compound 03-66]
EC50 [1, 4]: 10 to 100 nM | EC50 [2, 6]: 100 to 1000 nM | EC50 [3, 7]: < 10 nM

Cc1ccc([C@@H](O)CNC(C)(C)C)c(C)n1 [Compound 03-67]
EC50 [1, 4]: 100 to 1000 nM | EC50 [2, 6]: 10 to 100 nM | EC50 [3, 7]: < 10 nM

CC(C)(C)NC[C@H](O)c1cccnc1OC(F)(F)F [Compound 03-70]
EC50 [1, 4]: 100 to 1000 nM | EC50 [2, 6]: 10 to 100 nM | EC50 [3, 7]: 10 to 100 nM

CC(C)(C)NC[C@H](O)c1cccnc1OC1CC1 [Compound 03-71]
EC50 [1, 4]: 100 to 1000 nM | EC50 [2, 6]: 10 to 100 nM | EC50 [3, 7]: 10 to 100 nM

CC(C)(C)NC[C@H](O)c1cccnc1OC1CCC1 [Compound 03-72]
EC50 [1, 4]: 10 to 100 nM | EC50 [2, 6]: 10 to 100 nM | EC50 [3, 7]: < 10 nM

CC(C)(C)NC[C@H](O)c1cc(F)cnc1C1CCCC1 [Compound 03-80]
EC50 [1, 4]: > 1000 nM | EC50 [2, 6]: 100 to 1000 nM | EC50 [3, 7]: 10 to 100 nM

CC(C)(C)NC[C@H](O)c1cc(F)cnc1C1=CCCC1 [Compound 03-89]
EC50 [1, 4]: > 1000 nM | EC50 [2, 6]: > 1000 nM | EC50 [3, 7]: 100 to 1000 nM

CC(C)(C)NC[C@H](O)c1cccc(-c2ccc[nH]2)n1 [Compound 03-95]
EC50 [1, 4]: < 10 nM | EC50 [2, 6]: < 10 nM | EC50 [3, 7]: < 10 nM

CC(C)(C)NC[C@H](O)c1cccc(-n2nccn2)n1 [Compound 03-101]
EC50 [1, 4]: > 1000 nM | EC50 [2, 6]: 100 to 1000 nM | EC50 [3, 7]: 10 to 100 nM

CC(C)(C)NC[C@H](O)c1cccc(-n2ccnn2)n1 [Compound 03-102]
EC50 [1, 4]: 100 to 1000 nM | EC50 [2, 6]: 10 to 100 nM | EC50 [3, 7]: 10 to 100 nM

CC(C)(CO)NC[C@H](O)c1cccc(C#N)n1 [Compound 03-104]
EC50 [1, 4]: 100 to 1000 nM | EC50 [2, 6]: 100 to 1000 nM | EC50 [3, 7]: 100 to 1000 nM

CC(C)(C)NC[C@@H](O)c1ccnc(C#N)c1 [Compound 03-111]
EC50 [1, 4]: > 1000 nM | EC50 [2, 6]: 100 to 1000 nM | EC50 [3, 7]: 10 to 100 nM

CC(C)(C)NC[C@H](O)c1cccc(C2CCOCC2)n1 [Compound 03-121]
EC50 [1, 4]: 100 to 1000 nM | EC50 [1, 5]: 10 to 100 nM | EC50 [2, 6]: < 10 nM | EC50 [3, 7]: < 10 nM | EC50 [3, 8]: < 10 nM

CC(C)(C)NC[C@H](O)c1cccc(-n2cccc2)n1 [Compound 03-123]
Average pEC50 [Receptor subtype: B1-AR; Cell type: CHO-K1 (HitHunter)] ([1]; CHO-K1 (HitHunter)): A (A > 8) | EC50 [1, 5]: < 10 nM | EC50 [2, 6]: < 10 nM | EC50 [3, 7]: < 10 nM | EC50 [3, 8]: < 10 nM

CNc1cccc([C@H](O)CNC(C)(C)C)n1 [Compound 03-142]
EC50 [1, 4]: > 1000 nM | EC50 [1, 5]: > 1000 nM | EC50 [2, 6]: > 1000 nM | EC50 [3, 7]: 100 to 1000 nM | EC50 [3, 8]: 100 to 1000 nM

CN(C)c1cccc([C@@H](O)CNC(C)(C)C)n1 [Compound 03-153]
EC50 [1, 4]: 10 to 100 nM | EC50 [1, 5]: 10 to 100 nM | EC50 [2, 6]: 10 to 100 nM | EC50 [3, 7]: < 10 nM | EC50 [3, 8]: < 10 nM

CC(C)(C)NC[C@@H](O)c1cccc(C2CCC2)n1 [Compound 03-162]
Average pEC50 [Receptor subtype: B1-AR; Cell type: CHO-K1 (HitHunter)] ([1]; CHO-K1 (HitHunter)): D (D < 6) | EC50 [1, 5]: > 1000 nM | EC50 [2, 6]: 100 to 1000 nM | EC50 [3, 7]: 10 to 100 nM | EC50 [3, 8]: 10 to 100 nM

CC(C)(C)NCC(O)c1cc(C#N)cc(C(F)(F)F)n1 (centres unmarked) [Compound 03-181]
EC50 [1, 4]: > 1000 nM | EC50 [1, 5]: > 1000 nM | EC50 [2, 6]: 100 to 1000 nM | EC50 [3, 7]: 100 to 1000 nM | EC50 [3, 8]: 100 to 1000 nM

CC(C)(C)NC[C@H](O)c1cccc(NC2CC2)n1 [Compound 03-189]
EC50 [1, 4]: 10 to 100 nM | EC50 [2, 6]: 10 to 100 nM | EC50 [3, 7]: < 10 nM

CC(C)(C)NC[C@H](O)c1cccc(NC2CCC2)n1 [Compound 03-190]
EC50 [1, 4]: 10 to 100 nM | EC50 [2, 6]: < 10 nM | EC50 [3, 7]: < 10 nM

CC(C)(C)NC[C@H](O)c1cccc(NC2CCCC2)n1 [Compound 03-191]
EC50 [1, 4]: 10 to 100 nM | EC50 [2, 6]: < 10 nM | EC50 [3, 7]: < 10 nM

CC(C)Nc1cccc([C@@H](O)CNC(C)(C)C)n1 [Compound 03-192]
EC50 [1, 4]: 10 to 100 nM | EC50 [2, 6]: 10 to 100 nM | EC50 [3, 7]: < 10 nM

CC(C)(C)NC[C@H](O)c1cccc(Nc2ccccc2)n1 [Compound 03-193]
EC50 [1, 4]: < 10 nM | EC50 [2, 6]: < 10 nM | EC50 [3, 7]: < 10 nM

CC(C)(C)NC[C@H](O)c1cccc(Oc2ccccc2)n1 [Compound 03-195]
EC50 [1, 4]: 100 to 1000 nM | EC50 [2, 6]: 10 to 100 nM | EC50 [3, 7]: 10 to 100 nM

COc1ccc(C[C@@H](C)NC[C@H](O)c2ccc(NC3CC3)nc2C)cc1 [Compound 03-275]
EC50 [1, 9]: > 1000 nM | EC50 [3, 10]: 10 to 100 nM

CNc1ccc([C@@H](O)CNC(C)(C)C)c(C)n1 [Compound 03-276]
EC50 [1, 4]: 100 to 1000 nM | EC50 [3, 7]: 10 to 100 nM

CNc1ccc([C@@H](O)CN[C@H](C)Cc2ccc(OC)cc2)c(C)n1 [Compound 03-277]
EC50 [1, 9]: > 1000 nM | EC50 [3, 10]: < 10 nM

[2H]C([2H])([2H])C(NCC(O)c1cccnc1C)(C([2H])([2H])[2H])C([2H])([2H])[2H] (centres unmarked) [Compound 03-278]
EC50 [1, 4]: 100 to 1000 nM | EC50 [3, 7]: < 10 nM

[2H]C([2H])([2H])Nc1cccc([C@@H](O)CNC(C)(C)C)n1 [Compound 03-279]
EC50 [1, 4]: > 1000 nM | EC50 [3, 7]: 100 to 1000 nM

CC(C)(C)NC[C@H](O)c1cccc(C(C)(C)CN)n1 [Compound 03-280]
EC50 [1, 4]: > 1000 nM | EC50 [3, 7]: > 1000 nM
